According to patent US4308269A, “Maytansinoids, pharmaceutical compositions thereof and method of use thereof” (Takeda Chemical Industries, Ltd., priority 1979, dated 1981):
In brackets after ≈: the same amount, converted by molar mass.

What was measured:
[1] = tested on: melanoma B-16 tumor cells; assay: Antitumor activity, B-16 melanoma transplanted intraperitoneally in mice (NCI protocol 1,300), life span prolongation; format: in vivo; details: intraperitoneally once daily for 9 consecutive days
Experimental: Therapeutic tests were carried out in mice according to NCI-protocol 1,300, Cancer Chemother, Reports, Part 3, 1972, Vol. 3, No. 2, in which melanoma B-16 tumor cells had been intraperitoneally transplanted, compound (I) being administered intraperitoneally once daily for 9 consecutive days.

Tetrahymena pyriformis W = assay: Antiprotozoal activity, growth inhibition by the serial dilution method; format: cell-based; details: 28° C., 44 to 48 hours, pH 7.0
Experimental: Antioprotozoal activity of compound (I) was assayed with Tetrahymena pyriformis W as the test organism and a medium composed of 20 g tryptose-peptone (Difco Co.), 1 g yeast extract, 2 g glucose, 1000 ml distilled water, 10 ml 1 M phosphate buffer (pH 7.0) as the assay medium. The micoorganism was incubated at 28° C. for 44 to 48 hours and the growth inhibitory activity of compound (I) was assayed by the serial dilution method.

COc1cc2cc(c1Cl)N(C)C(=O)CC(OC(=O)C(N)c1ccccc1)C1(C)OC1C(C)C1CC(O)(NC(=O)O1)C(OC)/C=C/C=C(\C)C2 (single isomer, unassigned) [maytansinol 3-α-aminophenylacetate]
Antitumor activities B-16 (T/C%) ([1]; dose 100 μg/kg): 208% | Antitumor activities B-16 (T/C%) ([1]; dose 400 μg/kg): 208% | Antitumor activities B-16 (T/C%) ([1]; dose 800 μg/kg): 208% | MIC (Tetrahymena pyriformis W): 10 to 20 µg/mL (≈ 14.3 to 28.6 µM)
